Molecules are shown by their SMILES.

Series [1] in a line: Breath test using 13C-amino acid in fed and fasted ZDF lean rats. As to conditions: 50 μmol/kg orally; for time for which the tendency (Δ^13C higher in fasted than in fed state) continued: expired air collected up to 60 minutes. On the procedure: ZDF lean rats were placed in the fed/fasted state and the light-dark cycle as described above. 1-^13C-leucine, 1-^13C-alanine, or 1-^13C-glutamic acid (Cambridge Isotope Laboratories, Inc (Andover, Mass., USA)) dissolved in physiological saline was administered orally at 50 μmol/kg each (n=4 for each amino acid) at 13:00 of Day 2 in the fed state or 13:00 of Day 3 in the fasted state. Expired air samples were collected before the administration (0 minutes) and at several time points up to 60 minutes after the administration and Δ^13C (%) values were measured using a mass spectrometer for breath analysis (“ABCA” Sercon).

A short description of series [2]: Breath test using 13C-alanine in ZDF fatty rats F1 and F2. As to conditions: fed, 50 μmol/kg orally, from the start of the administration. On the procedure:
ZDF fatty rats F1 and F2 mentioned above were placed in the light-dark cycle as described above. 1-^13C-alanine dissolved in physiological saline was administered orally at 50 μmol/kg. Expired air samples were collected before the administration (0 minutes) and at several time points up to 60 minutes after the administration and Δ^13C (%) values were measured using a mass spectrometer for breath analysis (“ABCA” Sercon).

For series [3] the following is noted: ZDF fatty rats (diabetes model), fed, 50 μmol/kg orally, from the start of the administration to the end of the measurement (60 minutes). On the procedure:
ZDF fatty rats F1, F2, and F3 mentioned above were placed in the light-dark cycle as described above. 1-^13C-glutamic acid dissolved in physiological saline was administered orally at 50 μmol/kg. Expired air samples were collected before the administration (0 minutes) and at several time points up to 60 minutes after the administration and Δ^13C (%) values were measured using a mass spectrometer for breath analysis (“ABCA” Sercon).

In the case of `C[C@H](N)[13C](=O)O` [1-^13C-alanine], the “time for which the tendency (Δ^13C higher in fasted than in fed state) continued” value in series [1] is about 20 min. The “time after the administration up to which Δ^13C was higher in F1 rat than in F2 rat” value in series [2] was “about 50 minutes”.
Regarding `N[C@@H](CCC(=O)O)[13C](=O)O` [1-^13C-glutamic acid], the “Δ^13C (%) values of expired air, fasted state compared with fed state” value in series [1] (10 minutes after the administration, n=4 for each amino acid) is on record as “higher in the fasted state than in the fed state”. Moreover, in series [1], the “time for which the tendency (Δ^13C higher in fasted than in fed state) continued” value was about 40 min. In addition, the “Δ^13C (%) values of expired air, F1 rat (suspected sarcopenia) compared with F2 and F3 rats” value in series [3] is “higher in F1 rat than in F2 and F3 rats”.
As to `CC(C)C[C@H](N)[13C](=O)O` [1-^13C-leucine], the “time for which the tendency (Δ^13C higher in fasted than in fed state) continued” value in series [1] was “about 45 minutes”.
